Like-named read-outs stand apart in the source and are kept apart here.
Key:
Format in all cases: cell-based
C. albicans ATCC 10231 = assay: Preservation stress test, example formulation 1 (standard emulsion O/W); details: 1% active substance
Protocol: (§1) Preservation stress tests (PSTs) were carried out in order to determine the preserving activity of the diols. In the preservation stress test, this is simulated through artificial loadings with microorganisms. These can either be inoculated as mixed population or individually in mixtures independent of one another. The inoculated product samples are incubated under defined conditions and, after defined times, samples are taken in order to determine the germ loading. In the case of adequate preservation, the number of microorganisms should, depending on the type, either decrease or remain constant in order to satisfy the requirements specified, e.g. in Ph. Eur. 6.0. To investigate the preserving effect of the diols, application-typical amounts of the diols were incorporated into example formulations. […] [table] These example formulations were used to prepare various mixtures which each comprised 1% active substance or comprised water instead of the active substance as placebo mixtures. These mixtures were in each case inoculated with the test germs such that a germ loading of 10^5-10^6 CFU/g was present in the test mixture. The bacteria were either used individually for the inoculation or as a mixed culture. To determine the starting germ count, immediately after inoculation, an aliquot was taken, diluted in dilution medium (phosphate buffer, 0.07 molar pH 7.4 (+/−0.2), with 1% Tween 80+0.3% soya lecithin), and the surviving germ count was determined in the dilution stages 10^−1 to 10^−3. The inoculated product samples then incubated for a total of 28 d at 20-25° C. After 2 d, 7 d, 14 d and after 28 d, aliquots were taken and diluted in dilution medium (phosphate buffer, 0.07 molar pH 7.4 (+/−0.2), with 1% Tween 80+0.3% soya lecithin). The surviving germ counts were determined in the dilution stages 10^−1 to 10^−4. The reference point taken for determining the reduction in germ count was the respective initial value of the sample. The results were given as logarithmic reductions.

A. niger ATCC 16404 [1] = assay: as above; details: 1% active substance
Protocol: as §1

P. aeruginosa ATCC 15442 = assay: Preservation stress test, example formulation 2 (roll-on deodorant formulation); details: 1% active substance
Protocol: as §1

E. coli ATCC 10536 = assay: as above; details: 1% active substance
Protocol: as §1

A. niger ATCC 16404 [2] = assay: as above; details: 1% active substance
Protocol: as §1

S. aureus NCIMB 9578 = assay: Microstatic activity, MIC in tryptone soy broth; details: Staphylococcus aureus, NCIMB9578, 30° C., 48 hours
Protocol: (§2) For this, in each case a 40 percent strength by weight solution of a diol in propylene glycol was prepared at 60° C. This solution was diluted with a double-strength soy solution (double-strength tryptone soy broth) as nutrient medium in the volume ratio 1:1. Further dilution with soy solution produced solutions with the following concentrations: 400 000 ppm (40%), 200 000 ppm (20%), 100 000 ppm (10%), 50 000 ppm (5%), 25 000 ppm (2.5%), 12 500 ppm (1.25%), 6250 ppm (0.625%), 3125 ppm (0.3125%). Pure soy solution was used as negative control. The positive control used was a solution of 5 ml of soy solution which has been treated with 0.1 ml of the respective microorganism. The test solutions consisted of 5 ml of the above-described soy solutions of the diols in the particular concentration which have been mixed with 0.1 ml of the respective microorganism. The samples and controls were incubated in the case of the bacteria at 30° C. for 48 hours, and in the case of fungi over 5 days at 25° C. In each case, the MIC (Minimum Inhibitory Concentration) value was determined. This value indicates the minimum concentration above which the growth of the microorganisms was visibly hindered compared to the corresponding sample without addition of the diol. […] For example, this was evident from the occurrence of clouding or visible growth of the microorganism. […] The MIC value stated is a range between the next higher concentration of a positive test and the same and/or lower concentration of a first negative test.

C. albicans NCPF 3179 = assay: Microstatic activity, MIC in tryptone soy broth; details: Candida albicans, NCPF3179, 120 h, 25° C., 5 days
Protocol: as §2

[3] = system: P. aeruginosa NCIMB 10421; assay: Microstatic activity, MIC in tryptone soy broth; details: Pseudomonas aeruginosa, NCIMB10421, 30° C., 48 hours
Protocol: as §2

E. coli NCIMB 8545 = assay: Microstatic activity, MIC in tryptone soy broth; details: Escherichia coli, NCIMB8545, 30° C., 48 hours
Protocol: as §2

P. vulgaris NCIMB 4175 = assay: Microstatic activity, MIC in tryptone soy broth; details: Proteus vulgaris, NCIMB4175, 30° C., 48 hours
Protocol: as §2

A. niger IMI 149007 = assay: Microstatic activity, MIC in tryptone soy broth; details: Aspergillus niger, IMI149007, 120 h, 25° C., 5 days
Protocol: as §2

[4] = system: series of tested microorganisms (bacteria and fungi); assay: Microstatic activity, highest MIC from the series of tested microorganisms; details: highest measured MIC from the series of tested microorganisms
Protocol: The following microorganisms were used;to test the biocidal effect against various bacteria and fungi: In each case, the MIC (Minimum Inhibitory Concentration) value was determined. This value indicates the minimum concentration above which the growth of the microorganisms was visibly hindered compared to the corresponding sample without addition of the diol. The MIC value stated is a range between the next higher concentration of a positive test and the same and/or lower concentration of a first negative test. In the last line of each of the tables below, a “maximum” value is listed. This value indicates the highest measured MIC value in each case from the series of tested microorganisms.

[5] = lower limit of MIC range, read-out: MIC value (ppm of diol), from
[6] = upper limit of MIC range, read-out: MIC value (ppm of diol), to
[7] = lower limit, read-out: Maximum MIC value (ppm of diol), from
[8] = upper limit, read-out: Maximum MIC value (ppm of diol), to

Row | MIC (S. aureus NCIMB 9578; [5]) [mg/mL] | MIC (S. aureus NCIMB 9578; [6]) [mg/mL] | MIC (C. albicans NCPF 3179; [5]) [mg/mL] | MIC (C. albicans NCPF 3179; [6]) [mg/mL] | MIC [3, 5] [mg/mL] | SMILES | Microbicidal activity given as logarithmic reduction in germ count (C. albicans ATCC 10231; 48 h) | Microbicidal activity given as logarithmic reduction in germ count (C. albicans ATCC 10231; 7 d) | Microbicidal activity given as logarithmic reduction in germ count (C. albicans ATCC 10231; 14 d) [log. Red.] | Microbicidal activity given as logarithmic reduction in germ count (A. niger ATCC 16404 [1]; 48 h) [log. Red.] | Microbicidal activity given as logarithmic reduction in germ count (A. niger ATCC 16404 [1]; 7 d) [log. Red.] | Microbicidal activity given as logarithmic reduction in germ count (A. niger ATCC 16404 [1]; 14 d) [log. Red.] | Microbicidal activity given as logarithmic reduction in germ count (P. aeruginosa ATCC 15442; 48 h) [log. Red.] | Microbicidal activity given as logarithmic reduction in germ count (P. aeruginosa ATCC 15442; 7 d) | Microbicidal activity given as logarithmic reduction in germ count (P. aeruginosa ATCC 15442; 14 d) [log. Red.] | Microbicidal activity given as logarithmic reduction in germ count (E. coli ATCC 10536; 48 h) [log. Red.] | Microbicidal activity given as logarithmic reduction in germ count (E. coli ATCC 10536; 7 d) [log. Red.] | Microbicidal activity given as logarithmic reduction in germ count (E. coli ATCC 10536; 14 d) [log. Red.] | Microbicidal activity given as logarithmic reduction in germ count (A. niger ATCC 16404 [2]; 48 h) [log. Red.] | Microbicidal activity given as logarithmic reduction in germ count (A. niger ATCC 16404 [2]; 7 d) [log. Red.] | Microbicidal activity given as logarithmic reduction in germ count (A. niger ATCC 16404 [2]; 14 d) [log. Red.] | other results
1 | > 25 | ≤ 50 | > 25 | ≤ 50 | > 12.5 | CCCC(O)CO (centres unmarked) [1,2-Pentanediol, 1,2-pentanediol, reference compound] | 0 log. Red. | 0 log. Red. | 0 | 0 | 0 | 0 | 0 | 3 log. Red. | 5 | 0 | 1 | 1 | 0 | 0 | 0 | MIC [3, 6]: ≤ 25 mg/mL; MIC (E. coli NCIMB 8545; [5]): > 25 mg/mL; MIC (E. coli NCIMB 8545; [6]): ≤ 50 mg/mL; MIC (P. vulgaris NCIMB 4175; [5]): > 25 mg/mL; MIC (P. vulgaris NCIMB 4175; [6]): ≤ 50 mg/mL; MIC (A. niger IMI 149007; [5]): > 12.5 mg/mL; MIC (A. niger IMI 149007; [6]): ≤ 25 mg/mL; MIC [4, 7]: > 25 mg/mL; MIC [4, 8]: ≤ 50 mg/mL
2 | > 3.12 | ≤ 6.25 | > 25 | ≤ 50 | > 12.5 | OCC1(CO)CCCC1 [DMCP, 1,1-dimethylolcyclopentane] | ≧3 log. Red. | 5 log. Red. | 5 | 2 | 1 | 2 | 1 | ≧3 log. Red. | 5 | 1 | 3 | 5 | 0 | 0 | 0 | Microbicidal activity given as logarithmic reduction in germ count (C. albicans ATCC 10231; 28 d): 5 log. Red.; Microbicidal activity given as logarithmic reduction in germ count (A. niger ATCC 16404 [1]; 28 d): 2 log. Red.; Microbicidal activity given as logarithmic reduction in germ count (P. aeruginosa ATCC 15442; 28 d): 5 log. Red.; Microbicidal activity given as logarithmic reduction in germ count (E. coli ATCC 10536; 28 d): 5 log. Red.; MIC [3, 6]: ≤ 25 mg/mL; MIC (E. coli NCIMB 8545; [5]): > 3.12 mg/mL; MIC (E. coli NCIMB 8545; [6]): ≤ 6.25 mg/mL; MIC (P. vulgaris NCIMB 4175; [5]): > 12.5 mg/mL; MIC (P. vulgaris NCIMB 4175; [6]): ≤ 25 mg/mL; MIC (A. niger IMI 149007; [5]): > 50 mg/mL; MIC (A. niger IMI 149007; [6]): ≤ 100 mg/mL; MIC [4, 7]: > 50 mg/mL; MIC [4, 8]: ≤ 100 mg/mL
3 | > 12.5 | ≤ 25 | > 25 | ≤ 50 | > 12.5 | CC(C)C(C)(CO)CO [IMPD, 2-isopropyl-2-methylpropane-1,3-diol] | 1 log. Red. | ≧3 log. Red. | 5 | 1 | 1 | 2 | 1 | ≧3 log. Red. | 5 | 3 | 5 | 5 | 0 | 0 | 0 | Microbicidal activity given as logarithmic reduction in germ count (C. albicans ATCC 10231; 28 d): 5 log. Red.; Microbicidal activity given as logarithmic reduction in germ count (A. niger ATCC 16404 [1]; 28 d): 3 log. Red.; Microbicidal activity given as logarithmic reduction in germ count (P. aeruginosa ATCC 15442; 28 d): 5 log. Red.; Microbicidal activity given as logarithmic reduction in germ count (E. coli ATCC 10536; 28 d): 5 log. Red.; MIC [3, 6]: ≤ 25 mg/mL; MIC (E. coli NCIMB 8545; [5]): > 6.25 mg/mL; MIC (E. coli NCIMB 8545; [6]): ≤ 12.5 mg/mL; MIC (P. vulgaris NCIMB 4175; [5]): > 6.25 mg/mL; MIC (P. vulgaris NCIMB 4175; [6]): ≤ 12.5 mg/mL; MIC (A. niger IMI 149007; [5]): > 25 mg/mL; MIC (A. niger IMI 149007; [6]): ≤ 50 mg/mL; MIC [4, 7]: > 25 mg/mL; MIC [4, 8]: ≤ 50 mg/mL

Source: US20120152149A1, “USE OF 1,3-DIOLS AS BIOCIDES” (BASF SE, priority 2009, published 2012)
